Experiments:
[1] = target: T1, RORγ-LBD (GST-fused ligand-binding domain of RORγ) / coactivator TRAP220/DRIP-2 (Homo sapiens, UniProt P51449); test: Inhibitory effect on RORγ-coactivator binding (LanthaScreen TR-FRET RORγ Coactivator Assay); format: biochemical; details: at 33 μmol/L of the test compound; read-out: RORγ-coactivator binding inhibition rate (%)
T1 construct: purchased Invitrogen
T1 sequence (P51449 269-508 limits assumed): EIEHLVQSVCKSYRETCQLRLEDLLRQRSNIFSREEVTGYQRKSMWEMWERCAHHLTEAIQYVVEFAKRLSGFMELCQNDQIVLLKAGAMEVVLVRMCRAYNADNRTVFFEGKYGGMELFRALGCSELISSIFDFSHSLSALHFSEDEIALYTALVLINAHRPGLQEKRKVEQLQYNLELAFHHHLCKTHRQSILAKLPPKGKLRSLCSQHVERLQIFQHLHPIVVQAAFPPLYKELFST
Description: The inhibitory effect of the cyclic amine derivative (I) or a pharmacologically acceptable salt thereof on the binding between a ligand-binding domain of RORγ (hereinafter referred to as RORγ-LBD) and a coactivator was evaluated using Invitrogen's LanthaScreen™ TR-FRET Retinoid-Related Orphan Receptor (ROR) gamma Coactivator Assay kit utilizing time-resolved fluorescence energy transfer (TR-FRET).
A test compound was dissolved in DMSO and diluted with TR-FRET Coregulator Buffer D (Invitrogen) containing 5 mmol/L of DTT to have a final DMSO concentration of 1% before use. To each well of a 384-well black plate (Corning Inc.), 4 nmol/L of GST-fused RORγ-LBD (Invitrogen) diluted with the buffer mentioned above and the test compound were added. A well without addition of the test compound and without addition of GST-fused RORγ-LBD (background) and a well without addition of the test compound and with addition of GST-fused RORγ-LBD (control) were prepared. Next, 150 nmol/L of fluorescein-labeled TRAP220/DRIP-2 (Invitrogen) diluted with the buffer mentioned above and 32 nmol/L of terbium-labeled anti-GST antibody (Invitrogen) were added to each well. After incubating the plate at room temperature for 16 to 24 hours, the fluorescence at 495 nm and 520 nm when excited at 320 nm was measured for each well and the ratio (fluorescence value at 520 nm/fluorescence value at 495 nm) was calculated.
The fold change with addition of the test compound (ratio with addition of the test compound/ratio of the background), the fold change of the control (ratio of the control/ratio of the background), and the fold change of the background (ratio of the background/ratio of the background) were calculated, and then the inhibition rate of binding between RORγ-LBD and a coactivator (hereinafter referred to as RORγ-coactivator binding inhibition rate) (%) was calculated from Formula (1):
RORγ-coactivator binding inhibition rate (%)=(1−((Fold change with addition of the test compound)−(Fold change of the background))/((Fold change of the control)−(Fold change of the background)))×100 (1).

[2] = system: oxazolone-induced mouse atopic dermatitis model; test: Oxazolone-induced mouse atopic dermatitis model; format: in vivo; details: 10 mg/kg orally once daily for 15 days from sensitization day; BALB/c mice; vs vehicle, P<0.05
Description: Using increase in the ear thickness as an index of exacerbation of symptoms, the effect of the cyclic amine derivative (I) or a pharmacologically acceptable salt thereof in an oxazolone-induced mouse atopic dermatitis model was evaluated. The oxazolone-induced mouse atopic dermatitis model was prepared by a partially modified method by Nakajima et al. (Journal of Investigative Dermatology, 2014, Vol. 134, p. 2122-2130).
BALB/c mice (female, 7 weeks old) (Charles River Laboratories Japan, Inc.) were used at 8 weeks old after preliminary breeding. To the back of the mice, 25 μL of a 3 w/v % oxazolone solution dissolved in ethanol was applied to sensitize the mice. Every other day from 5 days to 13 days after the sensitization, 10 μL each of a 0.6 w/v % oxazolone solution dissolved in ethanol was applied to both sides of the right auricle of the sensitized mice to induce inflammation.
A test compound at a dose of 10 mg/kg was administered to the mice once daily for 15 days from the sensitization day to 14 days after sensitization. As the test compound, the compound of Example 1, the compound of Example 4, and the compound of Example 9 were used. The compound of Example 1, the compound of Example 4, and the compound of Example 9 were suspended in a 0.5 w/v % methylcellulose solution and orally administered. The group in which the compound of Example 1 was administered to mice was defined as the Example-1 compound administration group, the group in which the compound of Example 4 was administered was defined as the Example-4 compound administration group, and the group in which the compound of Example 9 was administered was defined as the Example-9 compound administration group. In the vehicle administration group, a vehicle of each test compound (0.5 w/v % methylcellulose solution) was similarly administered.
The right ear thickness before application of the oxazolone solution (before sensitization) on the sensitization day and the right ear thickness on the next day of final induction were measured with a digital micrometer (Mitutoyo Corporation). […]

Row | SMILES | inhibition at 33 µM [1] | increase in the ear thickness (change in the ear thickness, next day of final induction) [2]
1 | CC(=O)N1CCCC[C@@H]1C(=O)Nc1cc(Cl)c2c(c1)CCN2C[C@H]1CC[C@H](C(F)(F)F)CC1 [Example 9, (R)-1-acetyl-N-(7-chloro-1-((trans-4-(trifluoromethyl)cyclo-hexyl)methyl)indolin-5-yl)piperidine-2-carboxamide] | 96.8% | statistically significantly suppressed
2 | CC(=O)N1CCCC[C@@H]1C(=O)Nc1cc(Cl)c2c(c1)CCN2Cc1ccc(C(F)(F)F)cc1 [Example 4, (R)-1-acetyl-N-(7-chloro-1-(4-(trifluoromethyl)benzyl)indolin-5-yl)piperidine-2-carboxamide] | 96.7% | statistically significantly suppressed
3 | CC(=O)N1CCCC[C@@H]1C(=O)Nc1cc(Cl)c2c(c1)CCCN2Cc1ccc(C(F)(F)F)cc1 [Example 1, (R)-1-acetyl-N-(8-chloro-1-(4-(trifluoromethyl)benzyl)-1,2,3,4-tetrahydroquinolin-6-yl)piperidine-2-carboxamide] | 96.9% | statistically significantly suppressed

From patent US20200392107A1, “CYCLIC AMINE DERIVATIVE AND MEDICAL USE THEREOF” (Toray Industries, Inc., priority 2018, published 2020)
